# How the values were obtained:
# [1] = target: T1, dopamine receptor 1 (D1R) (Mus musculus, UniProt Q61616); assay: Protein-ligand interaction (CETSA); format: binding
# T1 construct: endogenous in cells; BV2 inferred
# Protocol: (§1) This experiment was conducted to identify the receptor targeted by VD. Dopamine receptors (D1-D5) are present on the membranes of neurons, microglia, and astrocytes. The study aimed to determine through which pathway VD exerts its anti-inflammatory effects. Since dopamine receptors are broadly classified into the D1-like and D2-like families, representative dopamine receptor 1 (D1R) and dopamine receptor 2 (D2R) were evaluated using CETSA.
# [2] = target: T2, dopamine receptor 2 (D2R) (Mus musculus, UniProt P61168); assay: Protein-ligand interaction (CETSA); format: binding
# T2 construct: endogenous in cells; BV2 inferred
# T2 sequence (P61168 whole entry): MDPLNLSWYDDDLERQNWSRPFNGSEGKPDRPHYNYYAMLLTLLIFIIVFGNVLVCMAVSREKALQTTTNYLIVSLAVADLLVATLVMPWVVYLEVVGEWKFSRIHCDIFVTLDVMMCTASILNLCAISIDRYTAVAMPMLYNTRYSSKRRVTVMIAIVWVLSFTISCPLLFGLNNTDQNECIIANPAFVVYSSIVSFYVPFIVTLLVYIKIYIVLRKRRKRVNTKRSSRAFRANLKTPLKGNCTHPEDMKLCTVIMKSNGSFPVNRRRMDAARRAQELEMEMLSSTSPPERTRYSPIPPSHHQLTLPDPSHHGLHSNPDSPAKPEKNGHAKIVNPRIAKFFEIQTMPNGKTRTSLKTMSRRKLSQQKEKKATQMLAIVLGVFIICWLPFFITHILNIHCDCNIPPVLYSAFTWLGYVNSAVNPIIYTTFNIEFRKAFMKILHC
# Protocol: as §1
# [3] = system: Alzheimer's disease mouse model (5xFAD); assay: Western blot of hippocampus and cerebral cortex proteins after IV treatment; format: in vivo
# Protocol: This evaluation example was conducted to assess the effect of VD (vanillic acid-dopamine derivative) on the expression of specific proteins when administered to a 12-month-old Alzheimer's disease mouse model (5xFAD).
# A total of 13 twelve-month-old 5xFAD mice were used in this experiment. The experiment was divided into three groups: (1) a normal wild-type group, (2) a dementia-induced group administered saline (5xFAD + saline), and (3) a dementia-induced group administered VD (5xFAD + VD). Each group received intravenous (IV) injections of the respective substance six times over a total period of 20 days. After completion of the treatment, the brains were harvested from the mice, and hippocampal tissue was isolated for further analysis. Protein expression of specific factors was evaluated using the hippocampal tissue. To extract proteins, the tissue was homogenized in RIPA buffer and centrifuged at 13,000 rpm for 15 minutes at 4°C. The supernatant was collected, and protein concentration was measured using a BCA protein assay kit. Equal amounts of protein were loaded onto 8.5% SDS-PAGE gels and transferred to an Immobilon-P membrane. The membranes were blocked with 3% bovine serum albumin (BSA) in Tris-buffered saline containing 0.05% Tween-20 (TBS-T) for 3 hours at room temperature. Thereafter, diluted primary antibodies were incubated overnight at 4°C in 3% BSA. The membranes were washed three times and then incubated with secondary antibodies for 1 hour. Western blot bands were detected using PicoEPD Western Reagent and SuperSignal™ West Femto Maximum Sensitivity Substrate, and images were captured using a chemiluminescent western imaging system. The obtained images were analyzed using ImageJ software.
# FIGS. 14 and 15 show Western blot results analyzing changes in protein expression in the hippocampus and cerebral cortex, respectively, after treatment with VD (vanillic acid-dopamine derivative). These experiments were conducted using Alzheimer's disease model mice (5xFAD), and the expression levels of various inflammatory and neurodegeneration-related proteins were compared to evaluate the effect of VD. Both FIGS. 14 and 15 were conducted in two independent sets, with the left panels showing the results of the first set and the right panels showing the results of the second set.
# This figure quantitatively evaluates the anti-inflammatory and neuroprotective effects of VD in Alzheimer's disease model mice (5xFAD). For this purpose, VD was administered to dementia model mice at two doses, 2 mg/kg and 4 mg/kg. The inflammatory and neurodegeneration-related factors analyzed in this experiment were as follows. NLRP3 is a protein complex acting as an inflammatory factor that plays an important role in regulating immune responses and inducing inflammation. BACE-1 (Beta-site Amyloid Precursor Protein Cleaving Enzyme 1) is an enzyme that cleaves amyloid precursor protein (APP) to generate β-amyloid. β-amyloid is one of the primary causative substances of Alzheimer's disease, and its accumulation is considered a key pathological feature of the disease. IBA-1 is a marker of microglial activation, indicating activation of microglia, which play a crucial role in immune and inflammatory responses in the brain. GFAP is a marker of astrocyte activation, and increased GFAP expression indicates activation of astrocytes. When astrocytes and microglia are activated, they secrete pro-inflammatory cytokines, thereby promoting inflammatory responses.
# NF-κB = assay: Western blot for pNF-κB in LPS-treated cells; format: cell-based; details: LPS 1000 ng/mL, 100 µM VD
# Protocol: This experiment was conducted to evaluate how VD regulates the NF-κB pathway, which plays a critical role in inflammatory responses. NF-κB is a key transcription factor that regulates inflammatory responses, and when activated within cells, it promotes the expression of inflammatory cytokines. Therefore, inhibition of NF-κB activation may play an important role in suppressing inflammation. CREB acts upstream of the NF-κB pathway, and activation of CREB is associated with inhibition of the NF-κB pathway. Cells were treated with LPS (1000 ng/mL) to activate the NF-κB pathway and induce an inflammatory response, followed by treatment with VD at a concentration of 100 µM. A group treated with both VD and the additive (propylene glycol, PG) was also included for comparison. Western blot analysis was performed to examine the expression of pNF-κB, the activated form of NF-κB, and Lamin B was used as a control for nuclear protein quantification.
# TNF-α = assay: Western blot of pro-inflammatory factors in LPS-treated cells; format: cell-based; details: compared to LPS-only treated group
# Protocol: (§2) This in vitro experiment was performed to evaluate the ability of VD to suppress inflammatory responses. After extracting proteins from treated cells, the expression levels of inflammatory factors such as IL-6, iNOS, NLRP3, and TNF-α were analyzed by Western blotting. β-actin was used as an internal control for protein quantification. […] Accordingly, it may be concluded that VD affects both inflammatory and pro-inflammatory factors.
# iNOS = assay: as above; format: cell-based; details: compared to LPS-only treated group
# Protocol: as §2
# IL-6 = assay: as above; format: cell-based; details: compared to LPS-only treated group
# Protocol: as §2
# NLRP3 = assay: Western blot of inflammatory factors in LPS-treated cells; format: cell-based; details: compared to LPS-only treated group
# Protocol: as §2
# BV2 cells [4] = assay: Nitric oxide (NO) secretion analysis (Griess reagent) after LPS treatment; format: cell-based, mouse; details: LPS 2 hours, then VD 12 hours; all tested concentrations (up to 100 µM); compared to LPS-only group
# Protocol: This evaluation example was conducted to assess the effect of VD on nitric oxide (NO) secretion. Nitric oxides such as NO are inflammatory mediators that increase during inflammatory responses or infection and serve as important indicators of inflammation severity. By determining whether VD can inhibit NO secretion, the anti-inflammatory effect of VD was evaluated. After stabilizing BV2 cells, the cells were treated with LPS for 2 hours, followed by the addition of VD and incubation for 12 hours. The supernatant was collected from the cultured cells and centrifuged at 5,000 rpm for 2 minutes at 4°C. The analysis was performed using a Griess reagent kit, and the concentration of nitric oxide was calculated by measuring absorbance at 540 nm.
# CREB = assay: Western blot for CREB / pCREB in LPS-treated cells; format: cell-based; details: LPS 1000 ng/mL, 100 µM VD, with or without additive (PG)
# Protocol: This experiment was performed to evaluate how VD regulates the CREB factor, which plays an important role in inflammatory signaling pathways. CREB (cAMP response element-binding protein) is a transcription factor that regulates various intracellular signaling pathways. When activated, CREB plays an important role in suppressing the NF-κB pathway. Since NF-κB is one of the major mediators of inflammatory responses, activation of CREB is closely associated with inflammation suppression. After inducing an inflammatory response in cells by treating them with LPS (1000 ng/mL), VD was subsequently administered at concentrations of 10 µM, 50 µM, and 100 µM. A group treated with both VD and the additive (propylene glycol, PG) was also included. Western blot analysis was then performed to examine the expression levels of CREB and its activated form, pCREB. β-actin was used as an internal control for protein quantification.
# [5] = system: dementia mouse model (5xFAD); assay: Water maze experiment (cognitive function); format: in vivo
# Text: Latency to Target represents the time required to reach the target platform. As dementia progresses, cognitive function declines, leading to increased latency.
# Occupancy in Target Quadrant refers to the extent to which the mice reached or remained in the quadrant containing the target. […] Number of Target Crossings represents the number of times the mice crossed the location of the target platform.
# [6] = Cell viability assay (CCK-8); format: cell-based, mouse; details: mouse, bv2 cells, VD + additive propylene glycol (PG)
# Protocol: (§3) The cytotoxicity of the synthesized VD was evaluated through a cell viability assay. BV2 cells (normal mouse brain-derived cells) were used. The cells were cultured in a growth medium containing DMEM supplemented with 10% FBS (fetal bovine serum). The medium further contained 1% antibiotic-antimycotic solution, 1% insulin-transferrin-selenium, and 40 ng/mL dexamethasone, and the cells were incubated at 37°C in a humidified atmosphere containing 5% CO2. […] After maintaining the cells under serum-free conditions for 24 hours, subsequent incubation for 48 hours was performed using RPMI 1640 medium containing 10% FBS and […]. Thereafter, fresh complete medium containing Cell Counting Kit-8 (CCK-8) solution was added to the plate and incubated for 3 hours. Cell viability was measured by absorbance at 450 nm using a SpectraMax® i3 (Molecular Devices, CA, U.S.).
# BV2 cells [7] = assay: Cell viability assay (CCK-8); format: cell-based, mouse; details: VD alone
# Protocol: as §3
# [8] = 2 mg/kg and 4 mg/kg, IV six times over 20 days
# T1 sequence (Q61616 whole entry): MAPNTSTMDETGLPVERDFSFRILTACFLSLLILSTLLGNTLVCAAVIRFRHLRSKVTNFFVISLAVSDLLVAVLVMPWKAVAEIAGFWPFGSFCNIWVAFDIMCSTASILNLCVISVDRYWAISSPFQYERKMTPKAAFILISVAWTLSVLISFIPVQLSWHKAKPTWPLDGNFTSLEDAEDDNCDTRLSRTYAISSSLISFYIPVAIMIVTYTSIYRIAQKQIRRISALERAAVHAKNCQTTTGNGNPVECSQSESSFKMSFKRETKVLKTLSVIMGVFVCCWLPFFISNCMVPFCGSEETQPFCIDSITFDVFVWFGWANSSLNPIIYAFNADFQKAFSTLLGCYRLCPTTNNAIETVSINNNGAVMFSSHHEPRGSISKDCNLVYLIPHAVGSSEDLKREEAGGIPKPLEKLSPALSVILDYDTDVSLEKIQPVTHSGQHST
smiles,measurement,setting,value
COc1cc(C(=O)NCCc2ccc(O)c(O)c2)ccc1O [VD],CETSA change in D1R,[1],a change was observed
same,CETSA change in D2R,[2],no significant change
same,expression of inflammatory cytokines,[3],reduced
same,expression of phosphorylated tau,[3],reduced
same,expression of β-amyloid,[3],reduced
same,expression of BACE-1,[3]; [8],suppressed
same,expression of GFAP,[3]; [8],suppressed
same,expression of IBA-1,[3]; [8],suppressed
same,expression of NLRP3,[3]; [8],suppressed
same,activation of NF-κB (pNF-κB),NF-κB,significantly reduced
same,intensity of TNF-α,TNF-α,same pattern as NLRP3
same,intensity of iNOS,iNOS,same pattern as NLRP3
same,intensity of IL-6,IL-6,same pattern as NLRP3
same,intensity of NLRP3,NLRP3,effectively reduced
same,NO secretion,BV2 cells [4],lower NO secretion
same,pCREB/CREB ratio,CREB,significant increase
same,Latency to Target,[5]; 4 mg/kg VD-treated group,most significant improvement
same,Number of Target Crossings,[5]; 4 mg/kg group vs untreated dementia mice,notably higher
same,Number of Target Crossings,[5]; VD-treated group vs untreated dementia mice,more frequently
same,Occupancy in Target Quadrant,"[5]; VD-treated groups, particularly 4 mg/kg, vs untreated dementia mice",higher occupancy rate
same,Latency to Target,[5]; VD-treated vs untreated dementia mice,shorter
same,viability at 100 µM,[6]; 100 µM,84.7%
same,viability at 200 µM,[6]; 200 µM,60.1%
same,viability at 400 µM,[6]; 400 µM,43.1%
same,cell viability (cytotoxicity),BV2 cells [7]; 0-100 µM,little to no cytotoxicity
same,cell viability (cytotoxicity),BV2 cells [7]; 200 µM or more,slight cytotoxicity
